Where two headings read alike, the source gives them in different places.
Assays:
[1] = target: T1, human recombinant PDE2A (Homo sapiens, UniProt O00408); assay: PDE-Glo activity inhibition test, PDE2A; type: biochemical; settings: cGMP substrate, read-out: IC50 (CV%) PDE2A
T1 construct: purchased SignalChem

[2] = target: T2, human recombinant PDE5A (Homo sapiens, UniProt O76074); assay: PDE-Glo activity inhibition test, PDE5A; type: biochemical; settings: cGMP substrate, read-out: IC50 (CV%) PDE5A
T2 construct: purchased SignalChem

[3] = target: hA3R; settings: human A3 receptor; read-out: Ki ± SEM hA3R vs. [3H]PSB-11; cited from earlier work
[4] = target: hA2BR; settings: human A2B receptor; read-out: Ki ± SEM hA2BR vs. [3H]PSB-603; cited from earlier work
[5] = test system: platelet aggregation in whole rat blood induced with collagen; assay: In vitro whole rat blood aggregation induced with collagen (Multiplate impedance aggregometry); type: cell-based; settings: for Effect on collagen-induced platelet aggregation (in words): screened at 10 µM and 100 µM, whole rat blood (Figure 1); for Effect on collagen-induced platelet aggregation (in words) / Reduction of collagen-induced platelet aggregation: collagen 1.6 µg/mL; for IC50: Collagen [1.6 µg/mL], concentration inhibiting aggregation of whole rat blood in vitro by 50%; for Reduction of collagen-induced platelet aggregation: 100 µM compound, whole rat blood, screening (Figure 1)
Procedure: (§1) To evaluate antiplatelet activities of the test compounds, freshly isolated rat whole blood was incubated with compound or vehicle, and the aggregation responses were assessed with a whole blood aggregometer by measuring impedance changes. Platelet aggregation was induced with collagen. First, compounds were screened for anti-aggregation effects at concentration of 10 µM and 100 µM (Figure 1). […] In vitro aggregation tests were conducted using freshly collected whole rat blood with a Multiplate platelet function analyzer (Roche Diagnostic, Mannheim, Germany), the five-channel aggregometer based on measurements of electric impedance, according to previous procedures. Upon activation, platelets adhere and progressively aggregate on a duplicate metal sensor in the analyzer test cuvette. This leads to a change in resistance, which is proportional to the number of platelets adhering to the electrodes. Blood was drawn from the carotid of rats with hirudin blood tubes (S-Monovette, Hirudin, Sarstedt, Germany). Then, 300 μL of hirudin anticoagulated blood was mixed with 300 μL prewarmed isotonic saline solution containing the studied compound or vehicle (DMSO 0.1%) and preincubated for 3 min at 37 °C with continuous stirring. The agonists (collagen, ADP) were diluted using deionized water. Aggregation was induced by adding collagen (final concentration 1.6 µg/mL) or ADP (final concentration 6.5 µM). […] Activated platelet function was recorded for 6 min. Multiplate software v. V2.05 was used to analyze the area under the curve (AUC) of the clotting process for each measurement and calculate the mean values.

[6] = target: hA2AR; settings: cited from earlier work
[7] = target: T3, human recombinant PDE3A (Homo sapiens, UniProt Q14432); assay: PDE-Glo activity inhibition test, PDE3A; type: biochemical; settings: for IC50: human recombinant PDE3A, cAMP substrate, read-out: IC50 (CV%) PDE3A
T3 construct: purchased SignalChem
T3 sequence (Q14432 whole entry): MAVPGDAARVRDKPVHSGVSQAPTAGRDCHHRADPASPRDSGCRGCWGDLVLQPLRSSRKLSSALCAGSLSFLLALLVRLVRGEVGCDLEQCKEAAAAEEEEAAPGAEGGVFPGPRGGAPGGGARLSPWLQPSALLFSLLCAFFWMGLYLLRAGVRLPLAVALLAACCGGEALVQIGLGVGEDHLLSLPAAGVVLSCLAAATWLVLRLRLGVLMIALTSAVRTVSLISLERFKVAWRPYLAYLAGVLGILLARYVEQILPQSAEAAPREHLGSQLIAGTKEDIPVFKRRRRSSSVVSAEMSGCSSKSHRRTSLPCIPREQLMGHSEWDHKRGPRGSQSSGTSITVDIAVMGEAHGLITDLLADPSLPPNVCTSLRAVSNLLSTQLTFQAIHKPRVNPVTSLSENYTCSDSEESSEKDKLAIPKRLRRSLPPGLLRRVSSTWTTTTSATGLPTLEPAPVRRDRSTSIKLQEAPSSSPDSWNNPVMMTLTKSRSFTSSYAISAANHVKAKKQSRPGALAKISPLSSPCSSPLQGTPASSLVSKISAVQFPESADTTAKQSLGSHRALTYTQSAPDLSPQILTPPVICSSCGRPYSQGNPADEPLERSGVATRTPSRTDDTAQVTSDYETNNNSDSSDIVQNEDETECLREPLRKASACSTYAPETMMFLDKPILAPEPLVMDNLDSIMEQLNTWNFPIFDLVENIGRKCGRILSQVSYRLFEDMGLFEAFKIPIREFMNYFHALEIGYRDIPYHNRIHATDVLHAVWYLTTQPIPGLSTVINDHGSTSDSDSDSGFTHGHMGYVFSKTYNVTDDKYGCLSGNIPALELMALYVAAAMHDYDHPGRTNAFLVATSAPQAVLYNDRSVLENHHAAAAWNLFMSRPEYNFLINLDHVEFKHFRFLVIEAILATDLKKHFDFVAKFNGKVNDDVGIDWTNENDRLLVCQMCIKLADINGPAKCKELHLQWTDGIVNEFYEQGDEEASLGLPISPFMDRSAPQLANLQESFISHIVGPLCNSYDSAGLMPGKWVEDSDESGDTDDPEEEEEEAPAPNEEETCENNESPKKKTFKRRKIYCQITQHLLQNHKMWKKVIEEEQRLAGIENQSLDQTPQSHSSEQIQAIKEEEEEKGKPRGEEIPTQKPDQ

[8] = target: hA1R; settings: human A1 receptor; read-out: Ki ± SEM hA1R vs. [3H]CCPA; cited from earlier work
[9] = test system: lipid peroxidation in rat brain homogenate; assay: In vitro lipid peroxidation (MDA/TBARS test)
Procedure: The lipid peroxidation was measured by the formation of thiobarbituric acid reactive substances (TBARS) in rat brain homogenate, which was made in 0.9% NaCl containing 10 mg tissue per mL [60]. Briefly, rat brain homogenates (1 mL) were incubated at 37 °C for 5 min with 10 µL of a test compound or vehicle. Lipid peroxidation was initiated with the addition of 50 µL of 0.5 mmol/L FeCl2 and 50 µL of 2 mmol/L ascorbic acid. After 30 min of incubation, the reaction was stopped by adding 0.1 mL of 0.2% butylhydroxytoluene. Thiobarbituric acid reagent was then added, and the mixture was heated for 15 min in a boiling water bath. The TBARS was extracted using n-butanol and measured at 532 nm. The amount of TBARS was quantified using a standard curve of malondialdehyde (1,1,3,3-tetraethoxypropane was used as standard).
The compound used to compare the results was carvedilol. Its activity was tested in the concentration range of 10–3000 μM (Figure 8). The reference was the maximum activity of carvedilol at the highest concentration (100%). Test compounds were assayed at concentrations of 100 and 1000 µM. The obtained results were then compared to the activity of the reference compound at identical concentrations (1000 µM).

[10] = target: T1, human recombinant PDE2A; design: method as in PMID 31705904; settings: cited from earlier work
[11] = test system: platelet aggregation in whole rat blood induced by ADP; assay: In vitro whole rat blood aggregation induced with ADP (Multiplate impedance aggregometry); type: cell-based; settings: ADP [6.5 μM], concentration inhibiting aggregation of whole rat blood in vitro by 50%
Procedure: as §1, with “In further experiments,” for “To evaluate antiplatelet activities of the test compounds, freshly isolated rat whole blood was incubated with compound or vehicle, and the aggregation responses were assessed with a whole blood aggregometer by measuring impedance changes. Platelet”, “ADP. In this model of aggregation, we tested the selected” for “collagen. First,”, “as well as IBMX as a positive control.” for “were screened for anti-aggregation effects at concentration of 10 µM and 100 µM (Figure 1).”

[12] = target: T2, human recombinant PDE5A; design: method as in PMID 31705904; settings: cited from earlier work

T1 sequence (O00408 whole entry): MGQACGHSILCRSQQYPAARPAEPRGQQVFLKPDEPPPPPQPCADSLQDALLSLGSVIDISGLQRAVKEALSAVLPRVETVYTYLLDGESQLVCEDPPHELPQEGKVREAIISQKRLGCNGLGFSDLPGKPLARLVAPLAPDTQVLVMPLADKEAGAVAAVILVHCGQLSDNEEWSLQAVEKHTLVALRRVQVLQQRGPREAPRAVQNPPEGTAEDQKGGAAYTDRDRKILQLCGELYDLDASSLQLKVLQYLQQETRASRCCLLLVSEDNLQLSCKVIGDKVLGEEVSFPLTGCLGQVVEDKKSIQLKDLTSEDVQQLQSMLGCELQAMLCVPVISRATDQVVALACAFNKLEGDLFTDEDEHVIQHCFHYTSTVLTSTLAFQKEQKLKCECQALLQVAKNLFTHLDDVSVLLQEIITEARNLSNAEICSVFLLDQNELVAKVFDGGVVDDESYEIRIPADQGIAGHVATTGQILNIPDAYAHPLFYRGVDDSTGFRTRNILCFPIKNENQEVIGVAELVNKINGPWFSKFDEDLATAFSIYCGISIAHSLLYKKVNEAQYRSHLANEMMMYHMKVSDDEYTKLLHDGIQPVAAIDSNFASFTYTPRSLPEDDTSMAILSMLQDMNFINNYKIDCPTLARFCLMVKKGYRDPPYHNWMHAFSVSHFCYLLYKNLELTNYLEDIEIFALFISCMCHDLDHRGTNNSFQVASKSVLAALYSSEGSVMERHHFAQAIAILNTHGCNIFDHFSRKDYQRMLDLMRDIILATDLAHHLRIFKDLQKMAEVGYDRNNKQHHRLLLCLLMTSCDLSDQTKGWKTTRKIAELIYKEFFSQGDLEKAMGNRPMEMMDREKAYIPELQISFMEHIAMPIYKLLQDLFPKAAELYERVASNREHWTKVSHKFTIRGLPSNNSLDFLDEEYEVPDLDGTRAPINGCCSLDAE

Compound: 3,7-dimethyl-8-(3-phenylpropoxy)-1-(prop-2-yn-1-yl)--purine-2,6-dione [TB-46]
- IC50 [1]: 9.85 µM
- IC50 [2]: 68.6 µM
- Ki [3]: > 1 µM
- Ki [4]: 0.472 ± 0.174 µM
- Effect on collagen-induced platelet aggregation (in words) [5]: did not affect platelet aggregation
- Ki [6]: 0.0191 ± 0.0023 µM
- IC50 [7]: 0.58 µM
- Ki [8]: 0.158 ± 0.012 µM
- Antioxidant activity at a concentration 10 times lower (in words) ([9]; concentration 10 times lower than 1000 µM): practically disappeared

Compound: CCCCCC[C@@H]([C@@H](C)O)n1cnc2c(N)ncnc21 (racemic) [EHNA, erythro-9-(2-hydroxy-3-nonyl)adenine, reference compound]
- IC50 [1]: 8.22 µM

Compound: COc1ccccc1OCCNCC(O)COc1cccc2[nH]c3ccccc3c12 (stereo not shown) [Carvedilol, carvedilol, reference compound]
- EC50 ([9]; carvedilol tested at 10–3000 μM, Figure 8, read-out: EC50 antioxidant action (lipid peroxidation)): 68.8 µM

Compound: O=C1CCc2cc(OCCCCc3nnnn3C3CCCCC3)ccc2N1 [Cilostazol, cilostazol, reference compound]
- IC50 [7]: 0.0545 µM

Compound: CC(C)Cn1c(=O)n(C)c(=O)c2[nH]cnc21 [IBMX, 1-methyl-3-isobutylxanthine, reference compound]
- IC50 [10]: 9.22 µM
- IC50 [5]: 98.8 ± 29.8 µM
- IC50 ([5]; Rattus norvegicus, Platelet): ~100 µM
- IC50 [11]: 18.5 ± 7.3 µM
- IC50 [12]: 45.1 µM

Compound: CC1CCC(N2CCCn3c2nc2c3c(=O)n(C)c(=O)n2C)CC1 (stereo not shown) [KD-64, 1,3-dimethyl-9-(4-methylcyclohexyl)-pyrimido [2,1-f] purine-2,4-dione]
- IC50 [1]: 27 µM
- IC50 [2]: > 100 µM
- Ki [3]: > 1 µM
- Ki [4]: > 1 µM
- Effect on collagen-induced platelet aggregation (in words) [5]: did not affect platelet aggregation
- Ki [6]: 0.24 µM
- IC50 [7]: 10.3 µM
- Ki [8]: > 1 µM

Compound: CCn1c(=O)c2c(nc(NCc3c(Cl)ccc(OC)c3F)n2C)n(C)c1=O [MZ-1497, 8-((6-chloro-2-fluoro-3-methoxybenzyl)amino)-1-ethyl-3,7-dimethyl-purine-2,6-dione]
- IC50 [2]: > 100 µM
- Ki [3]: > 1 µM
- Ki [4]: > 1 µM
- Effect on collagen-induced platelet aggregation (in words) [5]: did not affect platelet aggregation
- Ki [6]: 0.0685 ± 0.0155 µM
- Ki [8]: > 1 µM

Compound: CCCn1c(=O)[nH]c2nc(-c3ccc(S(=O)(=O)N4CCN(c5ccc(Cl)cc5)CC4)cc3)[nH]c2c1=O [PSB-603, 1-propyl-8-(4-((4-(4-chlorophenyl)piperazin-1-yl)sulfonyl)phenyl)-1H-purine-2,6(3H,7H)-dione]
- IC50 [1]: 50.1 µM
- IC50 [2]: 39.7 µM
- Ki [3]: > 1 µM
- Ki [4]: 0.000553 ± 0.000103 µM
- Reduction of collagen-induced platelet aggregation [5]: 50.4%
- Prevention of collagen-induced platelet aggregation ([5]; 100 µM, highest tested concentration, concentration series (Figure 2)): 54.12%
- IC50 [5]: 98.6 ± 27 µM
- IC50 ([5]; Rattus norvegicus, Platelet): ~100 µM
- Effect on platelet activity at lower concentrations (in words) ([5]; concentrations below 100 µM, collagen 1.6 µg/mL (Figure 2)): did not markedly affect platelet activity
- Ki [6]: > 1 µM
- IC50 [7]: > 100 µM
- Effect against PDE3A activity (in words) ([7]; in the concentrations tested): did not display any detectable effects
- Ki [8]: > 1 µM
- IC50 [11]: 82.9 ± 17 µM

Compound: CCCCn1c(=O)[nH]c2nc(-c3ccc(S(=O)(=O)N4CCN(c5ccc(Cl)cc5)CC4)cc3)[nH]c2c1=O [PSB-23066, 1-butyl-8-(4-((4-(4-chlorophenyl)piperazin-1-yl)sulfonyl)phenyl)-1H-purine-2,6(3H,7H)-dione]
- IC50 [2]: 45.8 µM
- Ki [3]: > 1 µM
- Ki [4]: 0.000401 ± 0.000136 µM
- Effect on collagen-induced platelet aggregation (in words) [5]: did not affect platelet aggregation
- Ki [6]: > 1 µM
- Ki [8]: > 1 µM

Compound: C#CCn1c(=O)c2c(nc(OCc3ccccc3Br)n2C)n(C)c1=O [TB-42]
- IC50 [2]: 64.5 µM
- Ki [4]: > 1 µM
- Reduction of collagen-induced platelet aggregation [5]: 56.8%
- IC50 ([5]; Platelet): 69.3 ± 0.7 µM
- Ki [6]: 0.059 ± 0.0102 µM
- Ki [8]: 0.357 ± 0.049 µM
- IC50 [11]: 58.6 ± 35.6 µM

Source: PMC10487961, “Antiplatelet Effects of Selected Xanthine-Based Adenosine A2A and A2B Receptor Antagonists Determined in Rat Blood” (International Journal of Molecular Sciences, 2023)
